No end group written: not given here.
Experiments:
[1] = system: Transforming Growth Factor-β (TGF- β); assay: TGF-β production by Human Dermal Fibroblast cells, ELISA; type: cell-based; conditions: HDF cells, graded concentrations, 48 hrs, vs un-treated cells; values only in Fig. 1
Protocol: (§1) Evaluation of Transforming Growth factor beta (TGF-β) and Fibroblast Growth Factor (FGF): Human Dermal Fibroblast (HDF) cells were cultured in DMEM medium with 10% FBS and seeded in 96 well tissue culture plate for the test. […] After 48hrs the supernatant was collected from each well. The amount of TGF-β and FGF produced by the various treated HDF was quantified using ELISA method according to the kit protocol provided by the manufacturer (R&D Systems) and absorbance was measured at 450 nm using Fluostar Optima. Standard curve was generated by plotting absorbance values of standards against appropriate TGF-β/ FGF concentrations. TGF-β/ FGF concentrations of the control and test samples were calculated from the standard graph equation. Percentage increase of expression in test samples was calculated with respect to un-treated cells. The results of the experiment are exemplified in Figs. 1 and 2 respectively. The importance of TGF- β1 in the synthesis of extracellular matrix in well established in • 1. Yang T et al, "miR-29 mediates TGFβ1-induced extracellular matrix synthesis through activation of PI3K-AKT pathway in human lung fibroblasts", J Cell Biochem. 2013 Jun;114(6):1336-42; • 2. Tan J et al, "MicroRNA-29 mediates TGFβ1-induced extracellular matrix synthesis by targeting wnt/β-catenin pathway in human orbital fibroblasts." Int J Clin Exp Pathol. 2014 Oct 15;7(11):7571-7; • 3. […]

TIMP = assay: Gene expression analysis, full-thickness in vitro skin culture model (EFT-400), qPCR; type: cell-based, human; conditions: EFT-400 culture, 100 µL applied, 24 hours; values only in Fig. 6
Excerpt: (§2) Each culture was visually inspected to ensure even distribution.

LOX = assay: as above; type: cell-based, human; conditions: EFT-400 culture, 100 µL applied, 24 hours; values only in Fig. 4
Excerpt: as §2

HSP-90 = assay: as above; type: cell-based, human; conditions: EFT-400 culture, 100 µL applied, 24 hours; values only in Fig. 3
Excerpt: as §2

Fibroblast Growth Factor = assay: FGF production by Human Dermal Fibroblast cells, ELISA; type: cell-based; conditions: HDF cells, graded concentrations, 48 hrs, vs un-treated cells; values only in Fig. 2
Protocol: as §1

HSP-47 = conditions: EFT-400 culture, 100 µL applied, 24 hours; values only in Fig. 5
Protocol: (§3) The objective of the study was to understand how application of test composition containing peptide of SEQ ID No. 1 linked to oleanolic acid represented by STR#1 influences gene expression in the skin. The current study was conducted using a full-thickness in vitro skin culture model (EFT-400, MatTek). One hundred microliters of Test Material was applied to the surface of each test culture and incubated for a period of 24 hours.
(§4) Treatment and Maintenance of cultures: 100 µL of test composition containing peptide of SEQ ID No. 1 linked to oleanolic acid represented by STR#1 was applied to the center of each EFT-400 culture. A sterile glass spreader was used to distribute the Test Material. Each culture was visually inspected to ensure even distribution. Following application, the cultures were returned to the incubator at 37°C with 5% CO2 for 24 hours. After 24 hours, the Test Materials were washed from the surface of each culture with sterile PBS. Following removal of test material, each culture was cut into quarters and placed into RNA solution.
(§5) RNA Isolation: RNA was isolated from tissues using a Maxwell 16 LEV RNA Tissue kit following the manufacturer's instructions (Promega) and vacuum concentrated until >200ng/uL as required for OpenArray processing. RNA concentration and purity were determined using a Nanodrop 2000 spectrophotometer. cDNA synthesis: cDNA was generated using a High Capacity cDNA Synthesis Kit according to the manufacturer's instructions for OpenArray processing (Life Technologies).
(§6) qPCR Processing: qPCR reactions were run using validated Taqman gene expression assays in an OpenArray format. OpenArrays were run in a Life Technologies QuantStudio 12K Flex instrument.
(§7) Data Analysis: qPCR data was imported into RealTime StatMiner software v4.2 for statistical analysis using the relative quantitation (RQ) method. In the first step of an RQ analysis, the CT value of the target gene is normalized to the CT value of an endogenous control gene for each sample to generate the delta CT (dCT).

CLDN7 = conditions: gene CLDN7 (claudin 7); EFT-400 culture, 100 µL applied, 24 hours
Protocol: as §3, §4, §5, §6, §7

KLK5 = conditions: gene KLK5 (kallikrein-related peptidase 5); EFT-400 culture, 100 µL applied, 24 hours
Protocol: as §3, §4, §5, §6, §7

LOR = conditions: gene LOR (loricrin); EFT-400 culture, 100 µL applied, 24 hours
Protocol: as §3, §4, §5, §6, §7

AQP5 = conditions: gene AQP5 (aquaporin 5); EFT-400 culture, 100 µL applied, 24 hours
Protocol: as §3, §4, §5, §6, §7

BMP2 = conditions: gene BMP2 (bone morphogenetic protein 2); EFT-400 culture, 100 µL applied, 24 hours
Protocol: as §3, §4, §5, §6, §7

TGFB1 = conditions: gene TGFB1 (transforming growth factor, beta 1); EFT-400 culture, 100 µL applied, 24 hours
Protocol: as §3, §4, §5, §6, §7

KRT4 = conditions: gene KRT4 (keratin 4); EFT-400 culture, 100 µL applied, 24 hours
Protocol: as §3, §4, §5, §6, §7

CALML5 = conditions: gene CALML5 (calmodulin-like 5); EFT-400 culture, 100 µL applied, 24 hours
Protocol: as §3, §4, §5, §6, §7

TP63 = conditions: gene TP63 (tumor protein p63); EFT-400 culture, 100 µL applied, 24 hours
Protocol: as §3, §4, §5, §6, §7

CDSN = conditions: gene CDSN (corneodesmosin); EFT-400 culture, 100 µL applied, 24 hours
Protocol: as §3, §4, §5, §6, §7

FLG = conditions: gene FLG (filaggrin); EFT-400 culture, 100 µL applied, 24 hours
Protocol: as §3, §4, §5, §6, §7

IL8 = conditions: gene IL8 (interleukin 8); EFT-400 culture, 100 µL applied, 24 hours
Protocol: as §3, §4, §5, §6, §7

PTGS2 = conditions: gene PTGS2 (Prostaglandin endoperoxide synthase 2/ COX2); EFT-400 culture, 100 µL applied, 24 hours
Protocol: as §3, §4, §5, §6, §7

ITGB4 = conditions: gene ITGB4 (integrin, beta 4); EFT-400 culture, 100 µL applied, 24 hours
Protocol: as §3, §4, §5, §6, §7

KRT10 = conditions: gene KRT10 (keratin 10); EFT-400 culture, 100 µL applied, 24 hours
Protocol: as §3, §4, §5, §6, §7

ILIA = conditions: gene ILIA (interleukin 1, alpha); EFT-400 culture, 100 µL applied, 24 hours
Protocol: as §3, §4, §5, §6, §7

TNF = conditions: gene TNF (tumor necrosis factor (TNFsuperfamily,member)); EFT-400 culture, 100 µL applied, 24 hours
Protocol: as §3, §4, §5, §6, §7

DSG3 = conditions: gene DSG3 (desmoglein 3); EFT-400 culture, 100 µL applied, 24 hours
Protocol: as §3, §4, §5, §6, §7

LCE3D = conditions: gene LCE3D (late cornified envelope 3D); EFT-400 culture, 100 µL applied, 24 hours
Protocol: as §3, §4, §5, §6, §7

PPARD = conditions: gene PPARD (peroxisome proliferator-activated receptor); EFT-400 culture, 100 µL applied, 24 hours
Protocol: as §3, §4, §5, §6, §7

MKI67 = conditions: gene MKI67 (antigen identified by Ki-67 antibody); EFT-400 culture, 100 µL applied, 24 hours
Protocol: as §3, §4, §5, §6, §7

test composition containing peptide of SEQ ID No. 1: peptide of SEQ ID No. 1 linked to oleanolic acid represented by STR#1; pentapeptide conjugate of oleanolic acid (KTTKS; also: linked to oleanolic acid, place not given here)
TGF- β expression in human dermal fibroblasts [1]: increase
skin expression of TIMP gene (TIMP): Up-regulation
skin expression of LOX gene (LOX): Up-regulation
skin expression of HSP-90 gene (HSP-90): Up-regulation
fibroblast growth factor expression in human dermal fibroblasts (Fibroblast Growth Factor): increase
skin expression of HSP-47 gene (HSP-47): Up-regulation
Fold Increase (CLDN7): 1.69 Fold
Fold Increase (KLK5): 2.44 Fold
Fold Increase (LOR): 1.63 Fold
Fold Increase (AQP5): 1.97 Fold
Fold Increase (BMP2): 1.80 Fold
Fold Increase (TGFB1): 1.72 Fold
Fold Decrease (KRT4): -2.11 Fold
Fold Increase (CALML5): 1.91 Fold
Fold Increase (TP63): 1.56 Fold
Fold Increase (CDSN): 1.78 Fold
Fold Increase (FLG): 2.23 Fold
Fold Decrease (IL8): -1.68 Fold
Fold Decrease (PTGS2): -1.80 Fold
Fold Increase (ITGB4): 1.76 Fold
Fold Decrease (KRT10): -1.71 Fold
Fold Decrease (ILIA): -1.77 Fold
Fold Decrease (TNF): -4.34 Fold
Fold Increase (DSG3): 2.19 Fold
Fold Increase (LCE3D): 1.61 Fold
Fold Increase (PPARD): 1.59 Fold
Fold Increase (MKI67): 1.83 Fold

Source: EP3253400B1, “OLEANOYL PEPTIDE COMPOSITION” (Majeed, Muhammed, priority 2015, dated 2023)
